In paper PMC5031696, “Synthesis, Biodistribution and In vitro Evaluation of Brain Permeable High Affinity Type 2 Cannabinoid Receptor Agonists [^11C]MA2 and [^18F]MA3” (Frontiers in Neuroscience, 2016):

How the values were obtained:
[1] = biodistribution studies in male NMRI mice; assay type: in vivo, mouse; conditions: mouse, in vivo; for % ID bladder + urine / % ID blood / % ID bone / % ID heart / % ID intestines / % ID kidneys / % ID liver / % ID lungs / % ID pancreas / % ID spleen / % ID stomach / SUV blood / SUV bone / SUV brain / SUV heart / SUV kidneys / SUV liver / SUV lungs / SUV pancreas / SUV spleen / % ID brain: iv
Method: The tissue distribution and kinetics of [^11C]MA2 and [^18F]MA3 were studied in male NMRI mice at 2, 10, 30, and 60 min post injection of the tracer. The results of the biodistribution studies are presented in Table 1 ([^11C]MA2) and Table 2 ([^18F]MA3) as percentage of injected dose (% ID) and standard uptake value (SUV).
The biodistribution of [^11C]MA2 and [^18F]MA3 was studied in normal male Naval Medical Research Institute (NMRI) mice. A solution of HPLC-purified [^11C]MA2 or [^18F]MA3 was diluted with saline to obtain an ethanol concentration < 10%. Mice were anesthetized with isoflurane (2% in oxygen) and injected intravenously (i.v.) with [^11C]MA2 (~ 9.25 MBq) or [^18F]MA3 (~ 0.92 MBq) via a lateral tail vein. The mice were sacrificed by decapitation at 2, and 60 min post injection (for [^11C]MA2, n = 4) and at 2, 10, 30, or 60 min post injection (for [^18F]MA3, n = 3 or 4 per time point) and dissected. Blood, organs, and other body parts were collected in tared tubes and the radioactivity in each tube was measured using an automated gamma counter. The tubes containing selected organs and blood were weighed. For calculation of total radioactivity in blood, blood mass was assumed to be 7% of the body mass (Fritzberg et al., [1982]). Quantitative data are expressed as mean ± standard deviation (SD). Means were compared using an unpaired two-tailed student t-test. Values were considered statistically significant for P ≤ 0.05.

hCB1 [2] = target: T1, hCB1 (Homo sapiens, UniProt P21554); assay: functional cAMP assay, hCB1 versus hCB2; assay type: cell-based; conditions: cAMP assays
T1 construct: host or cells: CHO-K1 beta-arrestin cells
Method: (§1) CHO-K1 beta-arrestin cells (DiscoveRx, Fremont, CA) expressing hCB2, mouse CB2 (mCB2), and human CB1 (hCB1) were cultured in F-12 Nutrient Mixture (HAM) supplemented with 10% fetal bovine serum (FBS), 300 μg/mL hygromycin and 800 μg/mL geneticin (G418). Cells were incubated in a humidified atmosphere at 37°C with 5% CO2.
(§2) cAMP was measured using cAMP-Nano-TRF detection kit (Roche Diagnostics, Penzberg, Germany). Cells were seeded 17–24 h prior to the experiment 3 × 10^4 cells per well in a black 96-well plate with flat clear bottom (Corning, Wiesbaden, Germany) in growth medium and incubated in 5% CO2 at 37°C in a humidified incubator. The growth medium was exchanged with Krebs Ringer bicarbonate buffer with 1 mmol/L 3-isobutyl-1-methylxanthine (IBMX), 0.1% fatty acid-free bovine serum albumin (BSA) and incubated at 30°C for 60 min. Agonist was added to a final assay volume of 100 μL and the mixture was incubated for 30 min at 30°C. The assay was stopped by the addition of 50 μL 3x lysis reagent and shaken for 2 h at room temperature. The time-resolved energy transfer was measured using an LF502 Nanoscan FLT (IOM, Berlin, Germany), equipped with a laser as excitation source. cAMP content was determined from the function of a standard curve spanning from 10 to 0.13 nmol/L cAMP.

mCB2 [3] = target: T2, mCB2 (Mus musculus, UniProt P47936); assay: radioligand binding assay with [^3H]CP55940, mCB2
T2 construct: host or cells: CHO-K1 beta-arrestin cells
Method: as §1
(§3) Stably transfected cells were treated for 24 h with 5 mM butyrate in growth medium before harvesting, followed by homogenization in 15 mmol/L Hepes, 0.3 mmol/L EDTA, 1 mmol/L EGTA, 2 mmol/L MgCl2, complete EDTA-free protease inhibitor (Roche Applied Science, Rotkreuz, Switzerland), pH 7.4 using a glass potter and centrifugation at 47,800 g at 4°C for 30 min. The pellet was then rehomogenized twice in the same buffer and centrifuged (47,800 g, 4°C, 30 min). The final pellet was then resuspended in 75 mmol/L Tris, 0.3 mmol/L EDTA, 1 mmol/L EGTA, 12.5 mmol/L MgCl2, 250 mmol/L sucrose, pH 7.4 at a protein concentration of 1 to 3 mg/mL, aliquoted, frozen on dry ice and stored at −80°C. Saturation binding was performed with 0.05 to 2.6 nM [^3H]CP55940 (Perkin Elmer) and 1.0 μg of membrane protein. CP55940 (10 μM) was used to define non-specific binding. More than 95% of the total binding signal was specific. Assay buffer consisted of 50 mmol/L Tris-HCl, 5 mmol/L MgCl2, 2.5 mmol/L EGTA, and 0.1% fatty acid-free BSA, pH 7.4. Assays were initiated by addition of membranes in a final volume of 250 μL/well. Mixtures were incubated for 3 h at room temperature and then vacuum filtered and rinsed with wash buffer (50 mmol/L Tris-HCl, 5 mmol/L MgCl2, 2.5 mmol/L EGTA, and 0.5% fatty acid-free BSA, pH 7.4) on a Filtermate cell harvester through Packard GF/B filters presoaked in 0.3% polyethylenimine.
(§4) For competition binding, membrane preparations were incubated with 0.3 nM [^3H]CP55940 in the presence or absence of increasing concentrations of ligands for 60 min at 30°C in a final volume of 0.2 mL of 50 mmol/L Tris-HCl, 5 mmol/L MgCl2, 2.5 mmol/L EGTA, 0.1% fatty acid-free BSA, and 1% DMSO, pH 7.4, buffer, gently shaking. Non-specific binding was defined with 10 μM CP55940. All binding reactions were terminated by vacuum filtration onto 0.5% polyethylenimine presoaked GF/B filter plates (Packard) followed by seven brief washes with 2 mL of ice-cold binding buffer containing 0.5% fatty acid-free BSA. Plates were dried at 50°C for 1 h and liquid scintillation counting was used to determine bound radiolabel. IC50 values and Hill slopes were determined by a four parameter logistic model using ActivityBase (ID Business Solution, Guilford, UK). pKi values were determined by the generalized Cheng-Prusoff equation (Yung-Chi and Prusoff, [1973]).

hCB1 [4] = target: T1, hCB1; assay: radioligand binding assay with [^3H]CP55940, hCB1
Method: as §1, §3, §4

hCB2 [5] = target: T3, hCB2 (Homo sapiens, UniProt P34972); assay: functional cAMP assay, hCB2; assay type: cell-based
T3 construct: host or cells: CHO-K1 beta-arrestin cells
Method: as §1, §2

hCB2 [6] = target: T3, hCB2; assay: radioligand binding assay with [^3H]CP55940, hCB2
Method: as §1, §3, §4

mCB2 [7] = target: T2, mCB2; assay: functional cAMP assay, mCB2; assay type: cell-based
Method: as §1, §2

CB2 = system: CB2; set-up: method as in Evens et al., 2011; conditions: ref Evens et al., 2011; cited from earlier work

T1 sequence (P21554 whole entry): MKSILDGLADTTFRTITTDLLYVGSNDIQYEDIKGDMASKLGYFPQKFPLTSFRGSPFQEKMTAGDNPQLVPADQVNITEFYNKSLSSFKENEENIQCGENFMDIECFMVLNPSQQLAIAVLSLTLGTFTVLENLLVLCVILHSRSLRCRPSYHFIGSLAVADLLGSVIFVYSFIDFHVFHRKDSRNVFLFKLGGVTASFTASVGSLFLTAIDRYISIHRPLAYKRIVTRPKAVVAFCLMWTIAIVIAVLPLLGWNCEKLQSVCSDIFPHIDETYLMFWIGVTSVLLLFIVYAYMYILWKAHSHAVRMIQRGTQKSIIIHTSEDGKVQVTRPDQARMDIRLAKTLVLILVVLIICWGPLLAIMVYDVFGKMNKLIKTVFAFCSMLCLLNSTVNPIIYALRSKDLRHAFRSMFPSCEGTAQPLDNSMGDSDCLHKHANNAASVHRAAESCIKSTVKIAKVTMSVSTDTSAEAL
T3 sequence (P34972 whole entry): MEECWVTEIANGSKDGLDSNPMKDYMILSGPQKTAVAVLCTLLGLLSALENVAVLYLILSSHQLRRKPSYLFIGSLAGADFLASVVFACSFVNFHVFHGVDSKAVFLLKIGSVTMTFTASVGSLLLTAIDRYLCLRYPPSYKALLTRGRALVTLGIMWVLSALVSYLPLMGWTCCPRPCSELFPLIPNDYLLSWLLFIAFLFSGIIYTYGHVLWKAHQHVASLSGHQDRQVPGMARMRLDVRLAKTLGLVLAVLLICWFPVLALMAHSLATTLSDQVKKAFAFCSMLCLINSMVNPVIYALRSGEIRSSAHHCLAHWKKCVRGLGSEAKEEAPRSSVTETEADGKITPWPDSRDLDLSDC
T2 sequence (P47936 whole entry): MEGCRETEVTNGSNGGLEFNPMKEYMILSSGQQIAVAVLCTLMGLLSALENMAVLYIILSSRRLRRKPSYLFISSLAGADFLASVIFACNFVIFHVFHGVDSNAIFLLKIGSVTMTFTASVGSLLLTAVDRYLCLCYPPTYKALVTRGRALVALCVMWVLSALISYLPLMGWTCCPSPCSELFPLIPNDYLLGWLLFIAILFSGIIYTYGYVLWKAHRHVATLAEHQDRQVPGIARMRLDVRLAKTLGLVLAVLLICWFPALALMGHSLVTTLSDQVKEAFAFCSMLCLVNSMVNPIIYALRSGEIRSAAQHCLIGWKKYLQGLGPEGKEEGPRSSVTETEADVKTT

## Fc1ccc(-c2noc(CCCNc3cnc4ccc(OCC[18F])cc4c3)n2)c(Cl)c1 [[^18F]MA3]
[1]; male, NMRI
  blood % ID 2 min/60 min ratio: 5.2
  brain % ID 2 min/60 min ratio: 9.2
[1]; male, NMRI, 2 min
  % ID bladder + urine: 0.2 ± 0.2 % ID
  % ID blood: 5.4 ± 0.4 % ID
  % ID bone: 5.3 ± 1.2 % ID
  % ID heart: 1.2 ± 0.1 % ID
  % ID intestines: 9.4 ± 3.9 % ID
  % ID kidneys: 9.0 ± 1.2 % ID
  % ID liver: 31.4 ± 8.4 % ID
  % ID lungs: 1.2 ± 0.3 % ID
  % ID pancreas: 1.4 ± 0.3 % ID
  % ID spleen: 0.4 ± 0.1 % ID
  % ID stomach: 1.4 ± 0.2 % ID
  SUV blood: 0.8 ± 0.1
  SUV bone: 0.4 ± 0.1
  SUV brain: 1.1 ± 0.1
  SUV heart: 3.4 ± 0.3
  SUV kidneys: 5.4 ± 0.4
  SUV liver: 7.2 ± 2.0
  SUV lungs: 2.8 ± 0.7
  SUV pancreas: 3.0 ± 0.5
  SUV spleen: 5.1 ± 0.6
[1]; male, NMRI, 10 min
  % ID bladder + urine: 0.4 ± 0.0 % ID
  % ID blood: 2.2 ± 0.3 % ID
  % ID bone: 3.5 ± 0.2 % ID
  % ID brain: 1.0 ± 0.1 % ID
  % ID heart: 0.3 ± 0.0 % ID
  % ID intestines: 30.8 ± 6.1 % ID
  % ID kidneys: 1.6 ± 0.2 % ID
  % ID liver: 26.1 ± 3.4 % ID
  % ID lungs: 0.5 ± 0.0 % ID
  % ID pancreas: 0.4 ± 0.1 % ID
  % ID spleen: 0.3 ± 0.1 % ID
  % ID stomach: 0.5 ± 0.0 % ID
  SUV blood: 0.3 ± 0.0
  SUV bone: 0.3 ± 0.0
  SUV brain: 0.5 ± 0.0
  SUV heart: 0.6 ± 0.0
  SUV kidneys: 1.1 ± 0.1
  SUV liver: 4.7 ± 0.7
  SUV lungs: 0.7 ± 0.1
  SUV pancreas: 0.8 ± 0.0
  SUV spleen: 0.5 ± 0.0
[1]; male, NMRI, 30 min
  % ID bladder + urine: 1.7 ± 0.3 % ID
  % ID blood: 1.2 ± 0.1 % ID
  % ID bone: 1.6 ± 0.5 % ID
  % ID brain: 0.3 ± 0.1 % ID
  % ID heart: 0.1 ± 0.0 % ID
  % ID intestines: 56.2 ± 5.4 % ID
  % ID kidneys: 1.0 ± 0.2 % ID
  % ID liver: 17.3 ± 6.7 % ID
  % ID lungs: 0.2 ± 0.0 % ID
  % ID pancreas: 0.2 ± 0.1 % ID
  % ID spleen: 0.1 ± 0.0 % ID
  % ID stomach: 0.8 ± 1.0 % ID
  SUV blood: 0.2 ± 0.0
  SUV bone: 0.1 ± 0.0
  SUV brain: 0.2 ± 0.0
  SUV heart: 0.4 ± 0.1
  SUV kidneys: 0.6 ± 0.1
  SUV liver: 3.7 ± 1.4
  SUV lungs: 0.4 ± 0.1
  SUV pancreas: 0.4 ± 0.1
  SUV spleen: 0.5 ± 0.3
[1]; male, NMRI, 60 min
  % ID blood: 1.0 ± 0.3 % ID
  % ID bone: 2.2 ± 0.3 % ID
  % ID brain: 0.1 ± 0.0 % ID
  % ID heart: 0.1 ± 0.0 % ID
  % ID kidneys: 0.7 ± 0.3 % ID
  % ID liver: 10.2 ± 5.2 % ID
  % ID lungs: 0.1 ± 0.0 % ID
  % ID pancreas: 0.1 ± 0.0 % ID
  % ID spleen: 0.03 ± 0.01 % ID
  % ID stomach: 4.4 ± 5.1 % ID
  SUV blood: 0.1 ± 0.0
  SUV bone: 0.2 ± 0.0
  SUV brain: 0.1 ± 0.0
  SUV heart: 0.3 ± 0.0
  SUV kidneys: 0.5 ± 0.1
  SUV lungs: 0.3 ± 0.1
  SUV pancreas: 0.3 ± 0.1
  SUV spleen: 0.5 ± 0.1
[1]
  accumulation in the spleen: no accumulation

## COc1ccc2ncc(NCCCc3nc(-c4ccc(F)cc4Cl)no3)cc2c1 [MA2, N-(3-(3-(2-chloro-4-fluorophenyl)-1,2,4-oxadiazol-5-yl)propyl)-6-methoxyquinolin-3-amine]
hCB1 [2]
  EC50 ratio hCB1/hCB2: 430
mCB2 [3]
  Ki: 241 nM
hCB1 [4]
  Ki: 1610 nM
hCB1 [4]; selectivity
  Ki ratio hCB1/hCB2: 19
hCB2 [5]
  EC50: 3 nM
hCB2 [5]; CHO-K1 cells expressing hCB2
  hCB2 cAMP % eff (efficacy): 101%
hCB2 [5]; hCB2
  functional behaviour in cAMP assay: agonists
hCB2 [6]
  Ki: 87 nM
mCB2 [7]
  EC50: 2 nM
mCB2 [7]; CHO-K1 cells expressing mCB2
  mCB2 cAMP % eff (efficacy): 100%

## Cc1c(CCN2CCOCC2)c2cc(OCC[18F])ccc2n1C(=O)c1cccc(Cl)c1Cl [[^18F]FE-GW405833]
CB2
  binding affinity for CB2: 27 nM
